Source: ChEMBL document CHEMBL3352725, “An uncharged oxetanyl sulfoxide as a covalent modifier for improving aqueous solubility” (ACS Med Chem Lett, 2014)
Converted amounts (≈) assume the structure as drawn.

Assays:
[1] = Aqueous solubility of the compound in H2O after 24 hrs incubation at 30 degC by LCMS analysis; assay type: physicochemical; settings: for solubility at 24 h: water
[2] = Metabolic stability in mouse liver microsomes assessed as compound remaining after 1 hr; assay type: ADME; settings: read-out: Stability

| Compound | solubility at 24 h [1] [µg/mL] | solubility ([1]; buffer, 24 h) [µg/mL] | remaining at 1 h [2] [%] |
| --- | --- | --- | --- |
| Cc1ccc(Cl)c(Nc2ccccc2C(=O)OCC[S+]([O-])CC2(C)COC2)c1Cl (centres undefined) | 250 (≈ 548 µM) | – | – |
| Cc1ccc(Cl)c(Nc2ccccc2C(=O)O)c1Cl [MECLOFENAMIC ACID] | – | 550 (≈ 1860 µM) | – |
| CC(C)C[C@@H](/C=C/CC(=O)NC1CC(C)(C)N([O])C(C)(C)C1)NC(=O)OCC[S+]([O-])CC1(C)COC1 (mixture of isomers) | 24000 | – | 16 |
| COc1ccc2cc([C@H](C)C(=O)OCC[S+](C)[O-])ccc2c1 (some centres undefined) | 270 (≈ 843 µM) | – | – |
| C[C@H](CCC(=O)OCC[S+]([O-])CC1(C)COC1)[C@H]1CC[C@H]2[C@@H]3CC[C@@H]4C[C@H](O)CC[C@]4(C)[C@H]3CC[C@]12C (mixture of isomers) | 260 | – | – |
| CCOC(=O)Nc1ccc2sc3c(c2c1)SCCNC3=O | 67 (≈ 208 µM) | – | – |
| COc1ccc2cc([C@H](C)C(=O)OCCS(=O)(=O)CC3(C)COC3)ccc2c1 | 63 (≈ 155 µM) | – | – |
| COc1ccc2cc([C@H](C)C(=O)OCCSCC3(C)COC3)ccc2c1 | 13 (≈ 34.7 µM) | – | – |
| CC(C)C[C@@H](/C=C/CC(=O)NC1CC(C)(C)N([O])C(C)(C)C1)NC(=O)OC(C)(C)C | 250 (≈ 589 µM) | – | – |
| Cc1cc(NS(=O)(=O)c2ccc(NC(=O)OCC[S+]([O-])CC3(C)COC3)cc2)no1 (centres undefined) | 1000 (≈ 2190 µM) | – | – |
| CC1(C[S+]([O-])CCOC(=O)N2CCN(c3cc4c(cc3F)c(=O)c(C(=O)O)cn4C3CC3)CC2)COC1 (centres undefined) | 190 (≈ 355 µM) | – | – |
| COc1ccc2cc([C@H](C)C(=O)OCC[S+]([O-])CC3(C)COC3)ccc2c1 (mixture of isomers) | 820 | – | – |
| CC1(C[S+]([O-])CCOC(=O)Nc2ccc3sc4c(c3c2)SCCNC4=O)COC1 (centres undefined) | 440 (≈ 968 µM) | – | – |
